Results as given in article PMC9849758, “Chemically diverse activity-based probes with unexpected inhibitory mechanisms targeting trypsin-like serine proteases” (Frontiers in Chemistry, 2023).
Entries after “also recorded” stand apart in the source; their conditions may differ.

system: proteases in human mast cell supernatants; experiment: Labeling of mast cell supernatants, functional proteomic profiling; conditions: 1 µM ABP, 10 µg total protein, two donors, IgE/DNP stimulated and non-stimulated
Procedure: Peripheral blood mononuclear cells (PBMCs) were obtained from buffy coats (Etablissement Français du Sang). CD34^+ precursors cells were isolated from PBMCs (EasySep™ Human CD34 Positive Selection Kit, STEMCELL Technologies) and grown under serum-free conditions using StemSpanTM medium (STEMCELL Technologies) supplemented with recombinant human IL-6 (50 ng/ml; Peprotech), human IL-3 (10 ng/ml; Peprotech) and 3% supernatant of CHO transfectants secreting murine SCF (a gift from Dr. P. Dubreuil, Marseille, France, 3% correspond to ∼50 ng/ml SCF) for 1 week. Cells were next grown in IMDM Glutamax I, sodium pyruvate, 2-mercaptoethanol, .5% BSA, Insulin-transferrin selenium (all from Invitrogen), penicillin (100 U/ml), streptomycin (100 μg/ml) and 3% supernatant of CHO transfectants secreting murine SCF for 8 weeks then tested phenotypically (CD117+, FcεRI+) and functionally (β-hexosaminidase release in response to FcεRI crosslinking) before use for experiments. Only primary cell lines showing more than 95% CD117+/FcεRI+ cells were used for experiments.
1 × 10^5 mast cells were distributed in 50 µl Tyrode’s Buffer and adapted to 37°C for 30 min. Mast cells were next stimulated with DNP-BSA (200 ng/ml) after sensitization with 1 μg/ml of IgE anti DNP (Sigma-Aldrich) overnight. Supernatants were harvested and stored at −80°C. (β-hexosaminidase was assayed by measuring the release of p-nitrophenol from the substrate p-nitrophenyl N-acetyl-β-D-glucosaminide).
Mast cell supernatants (10 µg of total protein) were labeled with 1 µM individual ABPs (46b, 52b, or 57b) in 50 mM Tris, 120 mM NaCl, .1 mg/ml BSA, 50 μg/ml heparin, pH 8 at 25°C (Sigma-Aldrich) in a final volume of 500 µL. […] The molecular weight of each band was determined with the Image Lab Software v5 (Bio-Rad) with Dual Color Protein Precision Plus Standard (10–250 kDa; Bio-Rad) as reference. […]

Row | SMILES | labeling of proteases in mast cell supernatants
1 | C[C@@H]1NC(=O)N[C@@H]1CCCCCC(=O)NCCOCCOCCOCCn1cc(CCCOC(=O)NC(c2ccc(NC(=N)N)cc2)P(=O)(Oc2ccc(Cl)cc2)Oc2ccc(Cl)cc2)nn1 (stereo partly drawn) [57b] | can label proteases in a complex proteome
2 | C[C@@H]1NC(=O)N[C@@H]1CCCCCC(=O)NCCOCCOCCOCCn1cc(CCCOC(=O)NC(CCCNC(=N)N)P(=O)(Oc2ccc(Cl)cc2)Oc2ccc(Cl)cc2)nn1 (stereo partly drawn) [46b] | can label proteases in a complex proteome
3 | C[C@@H]1NC(=O)N[C@@H]1CCCCCC(=O)NCCOCCOCCOCCn1cc(CCCOC(=O)NC(Cc2ccc(NC(=N)N)cc2)P(=O)(Oc2ccc(Cl)cc2)Oc2ccc(Cl)cc2)nn1 (stereo partly drawn) [54b] | can label proteases in a complex proteome; also recorded: best resolution
